Earlier results in patent US6548637B1, “Ligands for opioid receptors” (Sepracor, Inc., priority 1998, dated 2003).

Test system: mice
Details: intracerebroventricular injections to mice

## NC(=O)[C@H](Cc1ccccc1)NC(=O)[C@H](Cc1c[nH]c2ccccc12)NC(=O)C1CCCN1C(=O)[C@@H](N)Cc1ccc(O)cc1 (stereo partly drawn) [Example 1, Tyr-Pro-Trp-Phe-NH2]
  ED50 (analgesia): 8.4 µg

## NC(=O)C(Cc1ccccc1)NC(=O)[C@H](Cc1ccccc1)NC(=O)C1CCCN1C(=O)[C@@H](N)Cc1ccc(O)cc1 (stereo partly drawn) [Example 2, Tyr-Pro-Phe-Phe-NH2]
  ED50 (analgesia): 2.9 µg
